Data: US9826761B2, “Compositions and methods for mitigating dietary sulfur in animals” (SarTec Corporation, priority 2008, dated 2017)

Columns and labels:
[1] = Titration of approx. 200 mM sulfide in 24 hour old rumen fluid with 1 M MnCl2, BaCl2 or CaCl2, silver/sulfide electrode; design: species or system Holstein cows
Procedure: 24 hour old undiluted rumen fluid from rumen fistulated Holstein cows was obtained. 4 ml of Na2S in water (approximately 1 M) was added to 16 ml of the rumen fluid. The final concentration of sulfide ion in the rumen fluid was approximately 200 mM. […] The progress of the reaction was followed using the same silver/sulfide electrode set-up described above (Orion, Ion Plus Silver/Sulfide 9616BNWP).

[2] = Precipitating activity: rumen fluid containing manganese compound titrated with 1.0M Na2S, silver/sulfide electrode; design: species or system Holstein cows; settings: 100 mM MnO2(IV) in rumen fluid
Procedure: Next, 0.28 g of MnO(II) was placed in a 100 ml beaker and 20 ml of rumen fluid was added. Then 0.17 g of MnO2(IV) was placed in 100 ml beaker and 20 ml of rumen fluid was added. Each of these compositions, in addition to a rumen fluid control, was then titrated with a 1.0M solution of Na2S. The progress of the reaction was followed using the same silver/sulfide electrode set-up described above (Orion, Ion Plus Silver/Sulfide 9616BNWP).

SMILES: [Ba+2].[Cl-].[Cl-] [BaCl2]
- mVolts ([1]; Volume 0.0 of 1.0M BaCl2, ~200 mM sulfide): 942.6 mVolts
- mVolts ([1]; Volume 0.3 of 1.0M BaCl2, ~200 mM sulfide): 943.7 mVolts
- mVolts ([1]; Volume 0.4 of 1.0M BaCl2, ~200 mM sulfide): 943.3 mVolts
- mVolts ([1]; Volume 0.6 of 1.0M BaCl2, ~200 mM sulfide): 942.7 mVolts
- mVolts ([1]; Volume 0.8 of 1.0M BaCl2, ~200 mM sulfide): 941.3 mVolts
- mVolts ([1]; Volume 1.0 of 1.0M BaCl2, ~200 mM sulfide): 927.0 mVolts
- mVolts ([1]; Volume 1.2 of 1.0M BaCl2, ~200 mM sulfide): 925.6 mVolts
- mVolts ([1]; Volume 1.4 of 1.0M BaCl2, ~200 mM sulfide): 923.3 mVolts
- mVolts ([1]; Volume 1.6 of 1.0M BaCl2, ~200 mM sulfide): 922.5 mVolts
- mVolts ([1]; Volume 1.8 of 1.0M BaCl2, ~200 mM sulfide): 921.5 mVolts
- mVolts ([1]; Volume 2.0 of 1.0M BaCl2, ~200 mM sulfide): 920.9 mVolts
- mVolts ([1]; Volume 2.2 of 1.0M BaCl2, ~200 mM sulfide): 920.5 mVolts
- mVolts ([1]; Volume 2.4 of 1.0M BaCl2, ~200 mM sulfide): 920.0 mVolts
- mVolts ([1]; Volume 2.6 of 1.0M BaCl2, ~200 mM sulfide): 919.7 mVolts
- mVolts ([1]; Volume 2.8 of 1.0M BaCl2, ~200 mM sulfide): 918.8 mVolts
- mVolts ([1]; Volume 3.0 of 1.0M BaCl2, ~200 mM sulfide): 918.1 mVolts
- mVolts ([1]; Volume 3.2 of 1.0M BaCl2, ~200 mM sulfide): 917.7 mVolts
- mVolts ([1]; Volume 3.4 of 1.0M BaCl2, ~200 mM sulfide): 917.2 mVolts
- mVolts ([1]; Volume 3.6 of 1.0M BaCl2, ~200 mM sulfide): 916.7 mVolts
- mVolts ([1]; Volume 3.8 of 1.0M BaCl2, ~200 mM sulfide): 916.0 mVolts
- mVolts ([1]; Volume 4.0 of 1.0M BaCl2, ~200 mM sulfide): 915.6 mVolts
- mVolts ([1]; Volume 4.2 of 1.0M BaCl2, ~200 mM sulfide): 915.0 mVolts
- mVolts ([1]; Volume 4.4 of 1.0M BaCl2, ~200 mM sulfide): 914.8 mVolts
- mVolts ([1]; Volume 4.6 of 1.0M BaCl2, ~200 mM sulfide): 914.4 mVolts
- mVolts ([1]; Volume 4.8 of 1.0M BaCl2, ~200 mM sulfide): 913.9 mVolts
- mVolts ([1]; Volume 5.0 of 1.0M BaCl2, ~200 mM sulfide): 913.6 mVolts
- mVolts ([1]; Volume 5.2 of 1.0M BaCl2, ~200 mM sulfide): 913.0 mVolts
- mVolts ([1]; Volume 5.4 of 1.0M BaCl2, ~200 mM sulfide): 913.0 mVolts
- mVolts ([1]; Volume 5.6 of 1.0M BaCl2, ~200 mM sulfide): 912.7 mVolts
- mVolts ([1]; Volume 5.8 of 1.0M BaCl2, ~200 mM sulfide): 912.0 mVolts
- mVolts ([1]; Volume 6.0 of 1.0M BaCl2, ~200 mM sulfide): 911.7 mVolts
- mVolts ([1]; Volume 6.5 of 1.0M BaCl2, ~200 mM sulfide): 910.7 mVolts
- mVolts ([1]; Volume 7.0 of 1.0M BaCl2, ~200 mM sulfide): 910.8 mVolts
- mVolts ([1]; Volume 7.5 of 1.0M BaCl2, ~200 mM sulfide): 909.5 mVolts
- mVolts ([1]; Volume 8.0 of 1.0M BaCl2, ~200 mM sulfide): 908.3 mVolts
- mVolts ([1]; Volume 8.5 of 1.0M BaCl2, ~200 mM sulfide): 907.4 mVolts
- mVolts ([1]; Volume 9.0 of 1.0M BaCl2, ~200 mM sulfide): 906.8 mVolts
- mVolts ([1]; Volume 9.5 of 1.0M BaCl2, ~200 mM sulfide): 905.7 mVolts
- mVolts ([1]; Volume 10.0 of 1.0M BaCl2, ~200 mM sulfide): 905.0 mVolts

SMILES: [Ca+2].[Cl-].[Cl-] [CaCl2]
- mVolts ([1]; Volume 0.0 of 1.0M CaCl2, ~200 mM sulfide): 945.1 mVolts
- mVolts ([1]; Volume 0.1 of 1.0M CaCl2, ~200 mM sulfide): 939.8 mVolts
- mVolts ([1]; Volume 0.3 of 1.0M CaCl2, ~200 mM sulfide): 944.8 mVolts
- mVolts ([1]; Volume 0.5 of 1.0M CaCl2, ~200 mM sulfide): 931.6 mVolts
- mVolts ([1]; Volume 0.7 of 1.0M CaCl2, ~200 mM sulfide): 931.3 mVolts
- mVolts ([1]; Volume 0.9 of 1.0M CaCl2, ~200 mM sulfide): 931.2 mVolts
- mVolts ([1]; Volume 1.1 of 1.0M CaCl2, ~200 mM sulfide): 931.1 mVolts
- mVolts ([1]; Volume 1.4 of 1.0M CaCl2, ~200 mM sulfide): 930.7 mVolts
- mVolts ([1]; Volume 1.6 of 1.0M CaCl2, ~200 mM sulfide): 927.1 mVolts
- mVolts ([1]; Volume 1.8 of 1.0M CaCl2, ~200 mM sulfide): 925.7 mVolts
- mVolts ([1]; Volume 2.0 of 1.0M CaCl2, ~200 mM sulfide): 924.8 mVolts
- mVolts ([1]; Volume 2.2 of 1.0M CaCl2, ~200 mM sulfide): 923.8 mVolts
- mVolts ([1]; Volume 2.4 of 1.0M CaCl2, ~200 mM sulfide): 923.0 mVolts
- mVolts ([1]; Volume 2.6 of 1.0M CaCl2, ~200 mM sulfide): 921.0 mVolts
- mVolts ([1]; Volume 2.8 of 1.0M CaCl2, ~200 mM sulfide): 920.2 mVolts
- mVolts ([1]; Volume 3.0 of 1.0M CaCl2, ~200 mM sulfide): 917.5 mVolts
- mVolts ([1]; Volume 3.3 of 1.0M CaCl2, ~200 mM sulfide): 916.8 mVolts
- mVolts ([1]; Volume 3.4 of 1.0M CaCl2, ~200 mM sulfide): 915.6 mVolts
- mVolts ([1]; Volume 3.6 of 1.0M CaCl2, ~200 mM sulfide): 914.9 mVolts
- mVolts ([1]; Volume 3.8 of 1.0M CaCl2, ~200 mM sulfide): 914.3 mVolts
- mVolts ([1]; Volume 4.0 of 1.0M CaCl2, ~200 mM sulfide): 913.7 mVolts
- mVolts ([1]; Volume 4.2 of 1.0M CaCl2, ~200 mM sulfide): 913.1 mVolts
- mVolts ([1]; Volume 4.4 of 1.0M CaCl2, ~200 mM sulfide): 912.6 mVolts
- mVolts ([1]; Volume 4.6 of 1.0M CaCl2, ~200 mM sulfide): 912.1 mVolts
- mVolts ([1]; Volume 4.8 of 1.0M CaCl2, ~200 mM sulfide): 911.0 mVolts
- mVolts ([1]; Volume 5.0 of 1.0M CaCl2, ~200 mM sulfide): 910.1 mVolts
- mVolts ([1]; Volume 5.2 of 1.0M CaCl2, ~200 mM sulfide): 909.9 mVolts
- mVolts ([1]; Volume 5.4 of 1.0M CaCl2, ~200 mM sulfide): 909.5 mVolts
- mVolts ([1]; Volume 5.6 of 1.0M CaCl2, ~200 mM sulfide): 908.9 mVolts
- mVolts ([1]; Volume 5.8 of 1.0M CaCl2, ~200 mM sulfide): 908.5 mVolts
- mVolts ([1]; Volume 6.0 of 1.0M CaCl2, ~200 mM sulfide): 908.0 mVolts
- mVolts ([1]; Volume 6.5 of 1.0M CaCl2, ~200 mM sulfide): 906.7 mVolts
- mVolts ([1]; Volume 7.0 of 1.0M CaCl2, ~200 mM sulfide): 905.5 mVolts
- mVolts ([1]; Volume 7.5 of 1.0M CaCl2, ~200 mM sulfide): 904.5 mVolts
- mVolts ([1]; Volume 8.0 of 1.0M CaCl2, ~200 mM sulfide): 903.3 mVolts
- mVolts ([1]; Volume 8.5 of 1.0M CaCl2, ~200 mM sulfide): 902.3 mVolts
- mVolts ([1]; Volume 9.0 of 1.0M CaCl2, ~200 mM sulfide): 901.3 mVolts
- mVolts ([1]; Volume 9.5 of 1.0M CaCl2, ~200 mM sulfide): 900.3 mVolts
- mVolts ([1]; Volume 10.0 of 1.0M CaCl2, ~200 mM sulfide): 899.6 mVolts

SMILES: [O]=[Mn]=[O] [MnO2(IV)]
- mVolts ([2]; Vol 1M Na2S 0.0): 597.2 mVolts
- mVolts ([2]; Vol 1M Na2S 0.1): 672.5 mVolts
- mVolts ([2]; Vol 1M Na2S 0.2): 679.4 mVolts
- mVolts ([2]; Vol 1M Na2S 0.3): 688.1 mVolts
- mVolts ([2]; Vol 1M Na2S 0.4): 698.0 mVolts
- mVolts ([2]; Vol 1M Na2S 0.5): 699.4 mVolts
- mVolts ([2]; Vol 1M Na2S 0.7): 709.7 mVolts
- mVolts ([2]; Vol 1M Na2S 0.8): 720.0 mVolts
- mVolts ([2]; Vol 1M Na2S 0.9): 728.2 mVolts
- mVolts ([2]; Vol 1M Na2S 1.0): 738.1 mVolts
- mVolts ([2]; Vol 1M Na2S 1.1): 732.5 mVolts
- mVolts ([2]; Vol 1M Na2S 1.2): 737.4 mVolts
- mVolts ([2]; Vol 1M Na2S 1.3): 740.0 mVolts
- mVolts ([2]; Vol 1M Na2S 1.4): 749.2 mVolts
- mVolts ([2]; Vol 1M Na2S 1.5): 742.7 mVolts
- mVolts ([2]; Vol 1M Na2S 1.8): 762.4 mVolts
- mVolts ([2]; Vol 1M Na2S 2.1): 776.0 mVolts
- mVolts ([2]; Vol 1M Na2S 2.4): 784.3 mVolts
- mVolts ([2]; Vol 1M Na2S 2.6): 791.9 mVolts
- mVolts ([2]; Vol 1M Na2S 2.8): 796.6 mVolts
- mVolts ([2]; Vol 1M Na2S 3.0): 803.1 mVolts
- mVolts ([2]; Vol 1M Na2S 3.2): 806.0 mVolts
- mVolts ([2]; Vol 1M Na2S 3.5): 817.4 mVolts
- mVolts ([2]; Vol 1M Na2S 3.7): 817.0 mVolts
- mVolts ([2]; Vol 1M Na2S 3.9): 816.5 mVolts
- mVolts ([2]; Vol 1M Na2S 4.1): 817.2 mVolts
